Assay results from ChEMBL document CHEMBL1150230, “Mappain, a new cytotoxic prenylated stilbene from Macaranga mappa” (J Nat Prod, 2001).

Tests used:
Assay type in all cases: functional, cell-based
SK-OV-3 = assay: Cytotoxicity against multidrug-sensitive human SKOV3 cells by SRB assay
[1] = Cytotoxicity against multidrug-resistant human SKVLB1cells by SRB assay
MDA-MB-435 = assay: Cytotoxicity against multidrug-sensitive human MDA-MB-435 cells by SRB assay

CC(C)=CCC/C(C)=C/Cc1cc(/C=C/c2cc(O)c(CC=C(C)C)c(O)c2)cc(O)c1O [MAPPAIN]
IC50 (SK-OV-3): 1.3 µM
IC50 [1]: 1.3 µM
IC50 (MDA-MB-435): 1 µM
